Reference: US20070270455A1, “INHIBITION OF NF-kB” (priority 2005, published 2007)

Columns and labels:
HT1080ConALuC tumors = experiment: p53-dependent luciferase reporter in xenograft tumors; type: in vivo; conditions: intraperitoneal; 24 hours; nude mice
Experimental: HT1080ConALuC cells were inoculated into two flanks of nude mice. When tumors reach 5 mm in diameter, mice were injected intraperitoneally with indicated concentrations of the drugs (mg/kg, 3 mice per group). After 24 hours mice were sacrificed, tumors were isolated, lysed in Reporter Lysis Reagent (Promega) and luciferase activity was measured in […] of tumor proteins. Bars represent fold of induction of luciferase activity in tumors, treated with drugs over luciferase activity in tumors treated with vehicle. FIG. 5B: HT1080sip53 or HT1080siGFP cells were inoculated in the left and right flank of nude mice respectively.
NIH Swiss athymic nude, male mice, 5-6 weeks old were purchased from Harlan. 5×10^6 of tumor cells were inoculated into the flank of mice in 100 μL of PBS. […] As vehicle, 50% DMSO solution in PBS was used. Tumor size was measured in three dimensions every other day.
The in vivo anti-tumor effects of aminoacridines were tested in a xenograft tumor model using HT1080 cells differing in their p53 status and carrying p53 luciferase reporters grown subcutaneously in nude mice.

[1] = test system: HT1080 sip53 or HT1080 siGFP cells; experiment: Cell cycle analysis; type: cell-based, human
MCF7ConALacZ cells = experiment: p53-responsive reporter assay in MCF7 cells; type: cell-based; conditions: compared with doxorubicin
From the text: (§1) Bars represent folds of p53 responsive reporter induction over untreated controls. Box represents western blot analysis of p53 expression in total protein lysates of both cells variants in basal and doxorubicin treated conditions (to evaluate basal and DNA-damage induced level of p53). […] Fold induction presented as fold of reporter activation over untreated control. […] Fold induction presented as fold of reporter activation over untreated control.
For cotransfection set-up, 2×10^5 cells were plated into 6 well plates and, after overnight incubation, transfected with Lipofectamin Plus reagent (Gibco BRL) with 0.5 μg of reporter plasmids (p21-ConALuc or pNF-κBLuc) in combination with different concentrations of p53, Arf, Ss-IκB, or siHDM2 expressing plasmids. Corresponding empty vectors were added into all transfections up to 2 μg of total DNA amount. […] Luciferase activity and β-galactosidase activity was measured in lysates prepared 48 hours after transfection with Cell Lysis Buffer (Promega) by luciferase assay system (Promega) or β-galactosidase enzyme system (Promega). Luminometric and colorimetric reactions were read on the Wallack 1420 plate reader (Perkin Elmer). […] Luciferase or β-galactosidase activity and protein concentration were measured in aliquots of cell lysates using standard kits (Promega, Luciferase and β-galactosidase assay systems, Biorad Protein Assay Kit).

HT1080ConALuc cells = experiment: p53-responsive luciferase reporter assay in HT1080 cells; type: cell-based, human
From the text: as §1
For cotransfection set-up, 2×10^5 cells were plated into 6 well plates and, after overnight incubation, transfected with Lipofectamin Plus reagent (Gibco BRL) with 0.5 μg of reporter plasmids (p21-ConALuc or pNF-κBLuc) in combination with different concentrations of p53, Arf, Ss-IκB, or siHDM2 expressing plasmids. Corresponding empty vectors were added into all transfections up to 2 μg of total DNA amount. Normalization of transfection efficiency was done by adding 0.2 μg of pCMV-LacZ plasmid. Luciferase activity and β-galactosidase activity was measured in lysates prepared 48 hours after transfection with Cell Lysis Buffer (Promega) by luciferase assay system (Promega) or β-galactosidase enzyme system (Promega). Luminometric and colorimetric reactions were read on the Wallack 1420 plate reader (Perkin Elmer). Integrated reporter set-up. 2×10^4 of cells with integrated reporter were plated in 96 well plates. After overnights incubation chemical compounds or media from lentivirus producing cells were added. At different time points cell lysates were prepared using Reporter Lysis Buffer (Promega). Luciferase or β-galactosidase activity and protein concentration were measured in aliquots of cell lysates using standard kits (Promega, Luciferase and β-galactosidase assay systems, Biorad Protein Assay Kit).

RCC cell lines = experiment: Restoration of p53-mediated transactivation in RCC cell lines; type: cell-based; conditions: data not shown
topoisomerase II = experiment: DNA—Topoisomerase II activity assay; type: cell-based; conditions: in vitro; HT1080 cells, 1 h
Experimental: Western blot analysis of total protein lysates was performed using antibodies against p53 (DO1) and against specific sites of phosphorylation in p53. […] HCT116 cells were treated for 30 minutes with 1 μM PS-341. PS-341 was washed off after 30 minutes and cells were re-incubated in drug free medium prior to analysis at 3 hours or 16 hours post-treatment. […] Proteasome activity was determined by measuring the absorbance of free AMC generated by cleavage of an AMC-fluorogenic peptide. The proteasome activity of untreated cells was set at 100%. […] Cell lysates were isolated at the indicated hours after treatment and used for western blotting. Blots were probed with antibodies specific for both phosphorylated and unphosphorylated forms of IκB-α. β-actin specific antibodies were used as a loading control.
HT1080 cells were labeled for 24 hours with 0.02 to 0.04 mCi/mL of [^14C] thymidine, specific activity 53 mCi/mmol (Amersham). […] The induction of topo II-mediated DNA scission was determined by measuring precipitation of the protein DNA complex using a modification of the SDS-KCl technique.

[2] = after treatment with the drug, FIG. 3f

Nc1c2ccccc2nc2ccccc12 [9AA, 9-aminoacridine]
activation of p53 in tumors (HT1080ConALuC tumors): capable of activating p53 in tumors
effect on cell cycle ([1]; 3 μM): p53-dependent growth arrest
effect on cell cycle ([1]; 20 μM): apoptosis
induction of p53 reporter and p53-responsive genes (in words) (MCF7ConALacZ cells): weaker than that of doxorubicin
concentration at which p53 was activated (HT1080ConALuc cells; HT1080ConALuc cells, 24 hours): ≥ 1 µM
time at which p53-dependent transactivation becomes detectable (HT1080ConALuc cells; [2]): 12 h
time at which p53-dependent transactivation reaches maximum (HT1080ConALuc cells; [2]): around 36 hours
RCC cell lines with restored p53-mediated transactivation (RCC cell lines): 9 out of 10
effect on topoisomerase II activity (topoisomerase II): no effect
